{
  "source": "patent US6548042B2",
  "about": "“Bis-phosphonate compounds” (priority 2000, dated 2003)",
  "key": {"[1]": {"system": "MT-1 cells", "conditions": "repeated treatments (days 7 and 14); cited from earlier work"}, "[2]": {"conditions": "balb/c mice, 19-22 g, cited from earlier work"}, "[3]": {"experiment": "Biodistribution of i.v. administered radioiodinated compounds in balb/c mice;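 for all read-outs here: healthy mice given radioiodinated bisphosphonic acids, with randomly chosen groups of three animals per time point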", "conditions": "for Bone-seeking properties: mouse, in vivo; for Discomfort or toxicity after administration of samples: single bolus tail vein injection, 100 μl"}, "[4]": {"system": "OHS cells", "conditions": "60 days; ^153Sm-EDTMP 800 MBq/kg, ^89Sr 20 MBq/kg, ifosfamide 150 mg/kg; cited from earlier work"}, "[5]": {"conditions": "Sprague-Dawley rats, 220 g, 24 h; cited from earlier work"}, "[6]": {"conditions": "Swiss Webster mice, 20-25 g, 47 h; cited from earlier work"}},
  "note": "Read-outs that look alike come from different tables or passages of the source.",
  "data": [
    {"compound": "COc1cccc2c1C(=O)c1c(O)c3c(c(O)c1C2=O)C[C@@](O)(C(=O)CO)C[C@@H]3O[C@H]1C[C@H](N)[C@H](O)[C@H](C)O1", "note": "[doxorubicin]", "values": [
      {"measurement": "Effect on the metastatic growth", "setting": "[1]", "result": "nor did they have any significant effect on the metastatic growth"},
      {"measurement": "Survival after repeated treatments", "setting": "[1]", "result": "have not improved survival"}
    ]},
    {"compound": "O=C(NCCC(O)(P(=O)(O)O)P(=O)(O)O)c1cccc(I)c1", "note": "[compound 4]", "values": [
      {"measurement": "Uptake in femur expressed as % gram dose per gram tissue", "setting": "[2]; 2 h", "result": "702 (balb/c mice, 19-22 g, 2 h) % gram dose per gram tissue"},
      {"measurement": "Ratio between uptake in femur and spleen", "setting": "[2]; 24 h", "result": "3.2 (femur/spleen, balb/c mice,"},
      {"measurement": "Uptake in stomach", "setting": "[2]; 24 h", "result": "0.93 ± 0.95", "unit": "% ID/g"},
      {"measurement": "Uptake in the thyroid", "setting": "[2]; 24 h", "result": "0.45 ± 0.36", "unit": "% injected dose/organ"}
    ]},
    {"compound": "O=P(O)(O)C(Cc1cccc([125I])c1)P(=O)(O)O", "note": "[34a, m-[^125I and ^131I]-iodophenylethylidene-1,1-bisphosphonic Acid]", "values": [
      {"measurement": "Uptake in femur", "setting": "[3]; 0.5 h (30 min) postinjection, i.v.", "result": "18.8±0.51", "unit": "% ID/g"},
      {"measurement": "Activity in blood", "setting": "[3]; 0.5 h postinjection, i.v.", "result": "2.22±0.31", "unit": "% ID/g"},
      {"measurement": "Uptake in kidneys", "setting": "[3]; 0.5 h postinjection, i.v.", "result": "8.23±6.39", "unit": "% ID/g"},
      {"measurement": "Uptake in skull", "setting": "[3]; 0.5 h postinjection, i.v.", "result": "10.28±2.58", "unit": "% ID/g"},
      {"measurement": "Femur to soft tissue ratio", "setting": "[3]; 24 h, soft tissue with highest uptake", "result": "> 14"},
      {"measurement": "Uptake in femur", "setting": "[3]; 24 h postinjection, i.v.", "result": "15.25±4.89", "unit": "% ID/g"},
      {"measurement": "Uptake in kidneys", "setting": "[3]; 24 h postinjection, i.v.", "result": "1.06±0.10", "unit": "% ID/g"},
      {"measurement": "Uptake in skull", "setting": "[3]; 24 h postinjection, i.v.", "result": "7.13±2.73", "unit": "% ID/g"},
      {"measurement": "Bone-seeking properties", "setting": "[3]", "result": "potent bone-seekers"},
      {"measurement": "Discomfort or toxicity after administration of samples", "setting": "[3]", "result": "No sign of discomfort or toxicity was observed"}
    ]},
    {"compound": "O=P1(NCCCl)OCCCN1CCCl", "note": "(stereo not drawn) [ifosfamide]", "values": [
      {"measurement": "Survival rate / disease-free rats", "setting": "[4]", "result": 20, "unit": "%"},
      {"measurement": "Surviving / disease-free rats of rats treated", "setting": "[4]", "result": "3 of 15"}
    ]},
    {"compound": "O=P(O)(O)C(CCc1cccc([131I])c1)P(=O)(O)O", "note": "[72a, 3-(m-iodo-[^131I and ^125I]-phenyl)propylidene-1,1-bisphosphonic acid]", "values": [
      {"measurement": "Uptake in femur", "setting": "[3]; 24 h postinjection, i.v.", "result": "8.84±0.97", "unit": "% ID/g"},
      {"measurement": "Uptake in kidneys", "setting": "[3]; 24 h postinjection, i.v.", "result": "0.85±0.08", "unit": "% ID/g"},
      {"measurement": "Uptake in liver", "setting": "[3]; 24 h postinjection, i.v.", "result": "0.35±0.06", "unit": "% ID/g"},
      {"measurement": "Uptake in skull", "setting": "[3]; 24 h postinjection, i.v.", "result": "10.36±4.26", "unit": "% ID/g"},
      {"measurement": "Bone-seeking properties", "setting": "[3]", "result": "potent bone-seekers"},
      {"measurement": "Discomfort or toxicity after administration of samples", "setting": "[3]", "result": "No sign of discomfort or toxicity was observed"}
    ]},
    {"compound": "O=P(O)(O)C(NCCc1cccc([131I])c1)P(=O)(O)O", "note": "[67a, N-(m-[^131I]-iodophenylethyl)aminomethylene-bisphosphonic acid]", "values": [
      {"measurement": "Uptake in femur", "setting": "[3]; 24 h postinjection, i.v.", "result": "1.39±0.43", "unit": "% ID/g"},
      {"measurement": "Uptake in liver", "setting": "[3]; 24 h postinjection, i.v.", "result": "5.57±0.79", "unit": "% ID/g"},
      {"measurement": "Uptake in skull", "setting": "[3]; 24 h postinjection, i.v.", "result": "0.91±0.08", "unit": "% ID/g"},
      {"measurement": "Uptake in spleen", "setting": "[3]; 24 h postinjection, i.v.", "result": "2.49±0.37", "unit": "% ID/g"},
      {"measurement": "Bone-seeking properties", "setting": "[3]", "result": "lack bone seeking properties"},
      {"measurement": "Discomfort or toxicity after administration of samples", "setting": "[3]", "result": "No sign of discomfort or toxicity was observed"}
    ]},
    {"compound": "O=P(O)(O)C(Cc1ccccc1)P(=O)(O)O", "note": "[2h, phenylethylidenebisphosphonic acid]", "values": [
      {"measurement": "Uptake in femur", "setting": "[3]; 2 h postinjection (peak), i.v.", "result": "21±4", "unit": "% ID/g"},
      {"measurement": "Uptake in femur", "setting": "[3]; 24 h postinjection, i.v.", "result": "15±5", "unit": "% ID/g"}
    ]},
    {"compound": "O=P(O)(O)C(c1ccc(O)c(I)c1)P(=O)(O)O", "note": "[compound 3]", "values": [
      {"measurement": "Ratio between uptake in femur and kidney", "setting": "[5]", "result": "1.5 (femur/kidney, Sprague-Dawley"},
      {"measurement": "Uptake in femur expressed as % gram dose per gram tissue", "setting": "[5]", "result": "438 (Sprague-Dawley rats, 220 g, 24 h) % gram dose per gram tissue"},
      {"measurement": "Uptake in the thyroid", "setting": "[5]", "result": "3829 (% ID/g,"}
    ]},
    {"compound": "O=P(O)(O)C(O)(c1cccc(I)c1)P(=O)(O)O", "note": "[compound 2]", "values": [
      {"measurement": "Ratio between uptake in femur and stomach", "setting": "[6]", "result": "1.7 (femur/stomach, Swiss Webster"},
      {"measurement": "Uptake in femur expressed as % gram dose per gram tissue", "setting": "[6]", "result": "299 (Swiss Webster mice, 20-25 g, 47 h) % gram dose per gram tissue"},
      {"measurement": "Uptake in stomach", "setting": "[6]", "result": "7.65 ± 0.02", "unit": "% ID/g"},
      {"measurement": "Uptake in the thyroid", "setting": "[6]", "result": "0.414 ± 0.147", "unit": "% injected dose/organ"}
    ]},
    {"compound": "[89Sr]", "note": "[^89Sr]", "values": [
      {"measurement": "Survival rate / disease-free rats", "setting": "[4]", "result": 20, "unit": "%"},
      {"measurement": "Surviving / disease-free rats of rats treated", "setting": "[4]", "result": "2 of 10"}
    ]},
    {"compound": "N.N.[Cl][Pt][Cl]", "note": "[cisplatin]", "values": [
      {"measurement": "Effect on the metastatic growth", "setting": "[1]", "result": "nor did they have any significant effect on the metastatic growth"},
      {"measurement": "Survival after repeated treatments", "setting": "[1]", "result": "have not improved survival"}
    ]},
    {"compound": "^153Sm-EDTMP", "values": [
      {"measurement": "Survival rate / disease-free rats", "setting": "[4]", "result": 62, "unit": "%"},
      {"measurement": "Surviving / disease-free rats of rats treated", "setting": "[4]", "result": "8/13"}
    ]}
  ]
}
